Measured values from patent US20140030304A1, “Process for the Treatment of Synthetic Textiles with Cationic Biocides” (priority 2011, published 2014).
Read-outs that look alike come from different tables or passages of the source.

Tested on: Escherichia coli
Assay: Quick-kill test (AATCC-100) on treated PP textile, Escherichia coli
Assay type: cell-based

Q: CCCCCCCCCCCCCCCC[N+](C)(C)C.[Cl-] [CTAC, cetyltrimethylammonium chloride] was tested. Which “log-reduction / killing, E. coli” value (textile spray-treated with aqueous solution of unformulated biocide (2-3% w), 5 min, positive control) did it give?
A: 1.5 log

Q: And the “biocide activity against E. coli” value (textile spray-treated with aqueous solution of unformulated biocide (2-3% w), after 2 h)?
A: very effective

Q: With polyhexamethylenbiguanid [PHMB] as the compound, how does the “log-reduction / killing, E. coli” value read?
A: showed killing
